Measured values taken from patent publication US20060025589A1, “2-Thiohydantoine derivative compounds and use thereof for the treatment of diabetes” (priority 2002, published 2006).

These molecules were tested on male C57BL/KsJ-db/db mice (assay: in vivo reduction of serum glucose and triglyceride levels in diabetic db/db mice). Conditions: gavage, suspended in 3% gum arabic, twice daily for 10 days plus morning of day 11, doses below 200 mg/kg, generally 10 mg/kg, blood taken 4 h after last administration.
Description: The compounds of formula (I) according to the invention were subjected to pharmacological tests in order to evaluate their potential to reduce the blood glycemia level.
The in vivo studies were carried out on male C57BL/KsJ-db/db mice originating from CERJ (Route des Chênes Secs—BP 5—53940 Le Genest St Isle—France).
The animals are accommodated in cages fitted with a filter lid and have free access to an irradiated standard food and to filtered drinking water. All the equipment used (cages, feeding bottles, pipettes and shavings) is sterilized by autoclaving, irradiation or immersion in a disinfectant. The temperature of the room is maintained at 23±2° C. The light-dark cycle is 12 h.
During the acclimatization period, each animal is tagged with an electronic chip, which is implanted under anesthesia effected by the inhalation of a CO2/O2 mixture.
Groups of 8 to 10 mice are formed and the treatments start when the animals are 9 to 11 weeks old. The products are suspended in gum arabic at a concentration of 3% and administered to the animals by means of a gavage cannula for 10 days at a rate of two administrations per day, as well as on the morning of day 11. The products are tested at doses below 200 mg/kg and generally of 10 mg/kg. The animals in the control group receive the dosage vehicle only.
A blood sample is taken before treatment and then four hours after the last administration of the product. The animals are anesthetized by the inhalation of a CO2/O2 mixture and the blood is taken from the retro-orbital sinus, collected in a dry tube and kept cold. The serum is separated off by centrifugation at 2800 g (15 minutes, 4° C.) during the hour following sampling. The samples are kept at −20° C. until they are analyzed.
The serum glucose and triglyceride levels are determined on a Konélab 30 analyzer by means of Konélab kits. The animals whose glycemia before treatment was below 3 g/l are systematically excluded from the study.
For each group, the mean glucose and triglyceride levels after treatment are calculated and the results are expressed as the percentage variation of these means relative to the control group after verification of the homogeneity of the means before treatment.

Going from `CC1C(=O)N(c2ccc(Cc3ccccc3)cc2)C(=S)N1c1ccccc1` (centres unmarked) [Example 185, 5-Methyl-1-phenyl-3-[4-(phenylmethyl)phenyl]-2-thioxoimidazolidin-4-one] to `COc1ccc(N2C(=O)C(C)N(c3ccc(Cc4ccccc4)cc3)C2=S)cc1` (centres unmarked) [Example 200, 3-(4-Methoxyphenyl)-5-methyl-1-[4-(phenylmethyl)phenyl]-2-thioxoimidazolidin-4-one], the “Gly (decrease in the glycemia level; percentage variation of mean serum glucose relative to the control group)” value falls from −57% to −63%.

Compared with `COc1ccc(N2C(=O)C(C)(C)N(c3ccc(Oc4ccccc4)cc3)C2=S)cc1` [Example 30, 5,5-Dimethyl-3-(4-methoxyphenyl)-1-(4-phenoxyphenyl)-2-thioxoimidazolidin-4-one], `COc1ccc(N2C(=O)C(C)N(c3ccc(OCc4ccccc4)cc3)C2=S)cc1` (centres unmarked) [Example 139] is higher in “Gly (decrease in the glycemia level; percentage variation of mean serum glucose relative to the control group)” value: −54% for the first, −36% for the second.

Compared with `C=CCN1CC(=O)N(c2ccc(Cc3ccccc3)cc2)C1=S` [Example 190, 3-[4-(Phenylmethyl)phenyl]-1-(2-propenyl)-2-thioxoimidazolidin-4-one], `COc1ccc(N2C(=O)CN(c3ccc(Cc4ccccc4)cc3)C2=S)cc1` [Example 195, 3-(4-Methoxyphenyl)-1-[4-(phenylmethyl)phenyl]-2-thioxoimidazolidin-4-one] is higher in “Gly (decrease in the glycemia level; percentage variation of mean serum glucose relative to the control group)” value: −58% for the first, −53% for the second.

With `CC1C(=O)N(c2cccc(F)c2)C(=S)N1c1ccc(Oc2ccccc2)cc1` (centres unmarked) [Example 20, 3-(3-Fluorophenyl)-5-methyl-1-(4-phenoxyphenyl)-2-thioxoimidazolidin-4-one] the “Gly (decrease in the glycemia level; percentage variation of mean serum glucose relative to the control group)” value was −47%.

First: CC1C(=O)N(c2ccc(Cc3ccccc3)cc2)C(=S)N1c1ccccc1 (centres unmarked) [Example 185, 5-Methyl-1-phenyl-3-[4-(phenylmethyl)phenyl]-2-thioxoimidazolidin-4-one]
Second: COc1ccc(N2C(=O)C(C)N(c3ccc(Cc4ccccc4)cc3)C2=S)cc1 (centres unmarked) [Example 200, 3-(4-Methoxyphenyl)-5-methyl-1-[4-(phenylmethyl)phenyl]-2-thioxoimidazolidin-4-one]
The “TG (decrease in the triglyceride level; percentage variation of mean serum triglycerides relative to the control group)” value of the first is higher: −39% for the first, −58% for the second.

First: COc1ccc(N2C(=O)C(C)(C)N(c3ccc(Oc4ccccc4)cc3)C2=S)cc1 [Example 30, 5,5-Dimethyl-3-(4-methoxyphenyl)-1-(4-phenoxyphenyl)-2-thioxoimidazolidin-4-one]
Second: COc1ccc(N2C(=O)C(C)N(c3ccc(OCc4ccccc4)cc3)C2=S)cc1 (centres unmarked) [Example 139]
The “TG (decrease in the triglyceride level; percentage variation of mean serum triglycerides relative to the control group)” value of the first is lower: −53% for the first, −32% for the second.

Compared with `C=CCN1CC(=O)N(c2ccc(Cc3ccccc3)cc2)C1=S` [Example 190, 3-[4-(Phenylmethyl)phenyl]-1-(2-propenyl)-2-thioxoimidazolidin-4-one], `COc1ccc(N2C(=O)CN(c3ccc(Cc4ccccc4)cc3)C2=S)cc1` [Example 195, 3-(4-Methoxyphenyl)-1-[4-(phenylmethyl)phenyl]-2-thioxoimidazolidin-4-one] is higher in “TG (decrease in the triglyceride level; percentage variation of mean serum triglycerides relative to the control group)” value: −53% for the first, −46% for the second.

With `CC1C(=O)N(c2cccc(F)c2)C(=S)N1c1ccc(Oc2ccccc2)cc1` (centres unmarked) [Example 20, 3-(3-Fluorophenyl)-5-methyl-1-(4-phenoxyphenyl)-2-thioxoimidazolidin-4-one] the “TG (decrease in the triglyceride level; percentage variation of mean serum triglycerides relative to the control group)” value was −47%.
